Read-outs that look alike come from different tables or passages of the source.
How the values were obtained:
PI3-Kα = PI3-Kα (Mus musculus (Mouse), UniProt P42337); assay: PI3-Kα biochemical assay (in vitro kinase assay, fluorescence polarization); details: for PI3Ka Ki: Ki calculated from IC50, [ATP]=30 uM, Km=25 uM;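 on all read-outs here: Insect-cell-expressed mouse p110/p85 complex converting PI(4,5)P2, product PI(3,4,5)P3 detected by displacing TAMRA-tagged PI(3,4,5)P3 from Grip1 PH domain, lower polarization means more product, room temperature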
[1] = tested on: PI3-K (phosphorylation of AKT at serine 473) in BT20 cells; assay: PI3-Kα cellular assay (phospho-AKT Ser473 ELISA in BT20 cells); details: Homo sapiens, BT-20, 1 h;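 further: lysates read by ELISA with TMB colour at 450 nm, cells given 0.5% DMSO vehicle serve as positive control and cell-free wells as negative control, duplicate wells per concentration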
mTOR = mTOR (Homo sapiens (Human), UniProt P42345)
[2] = read-out: S473 pAKT 0.5% FBS IC50 (μM)
[3] = read-out: S473 pAKT 10% FBS IC50 (μM)

Chain of mTOR (P42345 2156-2469): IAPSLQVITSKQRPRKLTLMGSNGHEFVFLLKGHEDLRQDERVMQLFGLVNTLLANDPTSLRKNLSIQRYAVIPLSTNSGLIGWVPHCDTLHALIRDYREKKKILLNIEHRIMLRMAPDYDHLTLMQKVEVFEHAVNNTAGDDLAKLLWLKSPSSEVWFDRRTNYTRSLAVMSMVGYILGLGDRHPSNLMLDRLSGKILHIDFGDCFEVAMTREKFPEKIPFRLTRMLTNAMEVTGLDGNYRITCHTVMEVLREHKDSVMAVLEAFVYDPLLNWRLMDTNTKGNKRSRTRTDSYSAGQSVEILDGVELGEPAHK
Chain of PI3-Kα (P42337 whole entry, the tested form may be a part): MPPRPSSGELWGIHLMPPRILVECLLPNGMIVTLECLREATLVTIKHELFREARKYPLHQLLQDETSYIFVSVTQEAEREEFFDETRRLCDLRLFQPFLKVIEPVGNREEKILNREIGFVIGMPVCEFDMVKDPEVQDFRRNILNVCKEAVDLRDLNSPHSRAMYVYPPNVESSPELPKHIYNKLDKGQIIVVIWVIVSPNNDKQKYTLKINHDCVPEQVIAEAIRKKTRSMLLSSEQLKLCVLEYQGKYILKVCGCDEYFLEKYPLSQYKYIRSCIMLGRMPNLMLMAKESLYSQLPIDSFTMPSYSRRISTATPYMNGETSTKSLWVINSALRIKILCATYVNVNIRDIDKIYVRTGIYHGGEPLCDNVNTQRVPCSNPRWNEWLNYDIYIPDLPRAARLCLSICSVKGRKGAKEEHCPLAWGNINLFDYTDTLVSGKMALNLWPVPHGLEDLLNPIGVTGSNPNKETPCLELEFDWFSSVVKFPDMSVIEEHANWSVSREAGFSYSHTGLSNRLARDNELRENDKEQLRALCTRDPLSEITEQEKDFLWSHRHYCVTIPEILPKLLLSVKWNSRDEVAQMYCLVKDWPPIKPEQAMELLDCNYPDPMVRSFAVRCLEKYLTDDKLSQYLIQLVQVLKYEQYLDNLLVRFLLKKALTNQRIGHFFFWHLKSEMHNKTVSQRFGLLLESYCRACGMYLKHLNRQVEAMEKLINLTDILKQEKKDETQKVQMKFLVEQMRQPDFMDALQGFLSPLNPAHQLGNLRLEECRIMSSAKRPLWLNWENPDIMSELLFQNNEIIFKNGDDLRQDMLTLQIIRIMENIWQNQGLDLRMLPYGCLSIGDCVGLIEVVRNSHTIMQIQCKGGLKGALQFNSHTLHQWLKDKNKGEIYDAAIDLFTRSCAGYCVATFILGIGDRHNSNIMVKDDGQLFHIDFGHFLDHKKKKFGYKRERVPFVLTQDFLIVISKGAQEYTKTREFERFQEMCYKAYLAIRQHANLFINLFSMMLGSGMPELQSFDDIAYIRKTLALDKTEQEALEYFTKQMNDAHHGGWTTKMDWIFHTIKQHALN
Chain of PI3-Kα (P26450 whole entry partner, the tested form may be a part): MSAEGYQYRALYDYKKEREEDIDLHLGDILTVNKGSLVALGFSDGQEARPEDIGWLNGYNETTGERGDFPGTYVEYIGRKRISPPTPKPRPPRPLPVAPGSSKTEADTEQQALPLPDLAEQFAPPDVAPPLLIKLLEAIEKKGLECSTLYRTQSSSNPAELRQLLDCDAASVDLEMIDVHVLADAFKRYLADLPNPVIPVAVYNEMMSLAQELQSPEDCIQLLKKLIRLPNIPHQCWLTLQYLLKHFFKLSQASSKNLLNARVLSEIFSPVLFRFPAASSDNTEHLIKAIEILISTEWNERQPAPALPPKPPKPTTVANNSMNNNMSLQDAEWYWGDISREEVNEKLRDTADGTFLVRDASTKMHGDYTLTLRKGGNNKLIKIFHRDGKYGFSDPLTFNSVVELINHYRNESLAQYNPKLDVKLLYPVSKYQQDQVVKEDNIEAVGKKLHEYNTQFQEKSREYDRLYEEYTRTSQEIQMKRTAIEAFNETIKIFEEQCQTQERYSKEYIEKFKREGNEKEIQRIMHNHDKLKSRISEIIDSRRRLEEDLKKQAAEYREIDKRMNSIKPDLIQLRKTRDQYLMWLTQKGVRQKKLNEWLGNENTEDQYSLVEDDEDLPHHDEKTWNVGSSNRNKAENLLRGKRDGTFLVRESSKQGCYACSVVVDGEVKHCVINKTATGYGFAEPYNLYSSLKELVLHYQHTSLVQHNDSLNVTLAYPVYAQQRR

Row | Compound | PI3Ka Ki (PI3-Kα) | IC50 [1, 3] | further results
1 | COc1ncc(-c2ccc3ncc4c(c3n2)n(-c2ccc(C(C)(C)C#N)cc2)c(=O)n4C)cn1 [Compound 112, 2-(4-(8-(2-methoxypyrimidin-5-yl)-3-methyl-2-oxo-2,3-dihydroimidazo[4,5-c][1,5]naphthyridin-1-yl)phenyl)-2-methylpropanenitrile] | 6.09 nM | – | IC50 [1, 2]: 0.0272 µM
2 | CCNC(=O)N1CCC(n2c(=O)n(C)c3cnc4ccc(-c5cnc6ccccc6c5)nc4c32)CC1 [Compound 124, N-ethyl-4-(3-methyl-2-oxo-8-quinolin-3-yl-2,3-dihydro-1H-imidazo[4,5-c][1,5]naphthyridin-1-yl)piperidine-1-carboxamide] | – | – | IC50 [1, 2]: 0.017 µM
3 | Cn1cc(-c2ccc3ncc4c(c3n2)n(C2CCN(CC(F)(F)F)CC2)c(=O)n4C)cn1 [Compound 151, 3-methyl-8-(1-methyl-1H-pyrazol-4-yl)-1-[1-(2,2,2-trifluoroethyl)piperidin-4-yl]-1,3-dihydro-2H-imidazo[4,5-c][1,5]naphthyridin-2-one] | – | 0.195 µM | –
4 | COc1ncc(-c2ccc3ncc4c(c3n2)n([C@H]2CC[C@H](C(N)=O)CC2)c(=O)n4C)cn1 [Compound 157, trans-4-[8-(2-methoxypyrimidin-5-yl)-3-methyl-2-oxo-2,3-dihydro-1H-imidazo[4,5-c][1,5]naphthyridin-1-yl]cyclohexanecarboxamide] | – | 0.0456 µM | –
5 | Cn1cc(-c2ccc3ncc4c(c3n2)n([C@H]2CC[C@H](C(N)=O)CC2)c(=O)n4C)cn1 [Compound 158, trans-4-[3-methyl-8-(1-methyl-1H-pyrazol-4-yl)-2-oxo-2,3-dihydro-1H-imidazo[4,5-c][1,5]naphthyridin-1-yl]cyclohexanecarboxamide] | – | 0.224 µM | –
6 | COCC(=O)N1CCC(n2c(=O)n(C)c3cnc4ccc(-c5cnc(OC)nc5)nc4c32)CC1 [Compound 161, 1-[1-(methoxyacetyl)piperidin-4-yl]-8-(2-methoxypyrimidin-5-yl)-3-methyl-1,3-dihydro-2H-imidazo[4,5-c][1,5]naphthyridin-2-one] | – | 0.0123 µM | –
7 | COc1ncc(-c2ccc3ncc4c(c3n2)n([C@H]2CC[C@H](O)CC2)c(=O)n4C)cn1 [Compound 169, 1-(trans-4-hydroxycyclohexyl)-8-(2-methoxypyrimidin-5-yl)-3-methyl-1,3-dihydro-2H-imidazo[4,5-c][1,5]naphthyridin-2-one] | – | 1 µM | Ki (mTOR): 6.39 nM
8 | Cn1c(=O)n([C@H]2CC[C@H](O)CC2)c2c3nc(-c4cc[nH]n4)ccc3ncc21 [Compound 174, 1-(trans-4-hydroxycyclohexyl)-3-methyl-8-(1H-pyrazol-3-yl)-1,3-dihydro-2H-imidazo[4,5-c][1,5]naphthyridin-2-one] | 23.3 nM | 0.264 µM | –
9 | COc1ncc(-c2ccc3ncc4c(c3n2)n(C2CCN(C(=O)CN(C)C)CC2)c(=O)n4C)cn1 [Compound 183, 1-[1-(N,N-dimethylglycyl)piperidin-4-yl]-8-(2-methoxypyrimidin-5-yl)-3-methyl-1,3-dihydro-2H-imidazo[4,5-c][1,5]naphthyridin-2-one] | 28.7 nM | 0.175 µM | –
10 | Cn1c(=O)n(C2CCOCC2)c2c3nc(-c4ccn[nH]4)ccc3ncc21 [Compound 202, 3-methyl-8-(1H-pyrazol-5-yl)-1-(tetrahydro-2H-pyran-4-yl)-1,3-dihydro-2H-imidazo[4,5-c][1,5]naphthyridin-2-one] | 28.3 nM | 0.309 µM | –
11 | CN1CCC(n2c(=O)n(C)c3cnc4ccc(-c5ccc(N(C)C)nc5)nc4c32)CC1 [Compound 207, 8-[6-(dimethylamino)pyridin-3-yl]-3-methyl-1-(1-methylpiperidin-4-yl)-1,3-dihydro-2H-imidazo[4,5-c][1,5]naphthyridin-2-one] | – | 0.0194 µM | Ki (mTOR): 9.62 nM
12 | CN(C)c1ccc(-c2ccc3ncc4c(c3n2)n(C2CCN(C(=O)C(C)(C)O)CC2)c(=O)n4C)cn1 [Compound 209, 8-[6-(dimethylamino)pyridin-3-yl]-1-[1-(2-hydroxy-2-methylpropanoyl)piperidin-4-yl]-3-methyl-1,3-dihydro-2H-imidazo[4,5-c][1,5]naphthyridin-2-one] | 0.264 nM | 0.00669 µM | –
13 | Cn1c(=O)n(C2CCOCC2)c2c3nc(-c4cnc(N)nc4)ccc3ncc21 [Compound 210, 8-(2-aminopyrimidin-5-yl)-3-methyl-1-(tetrahydro-2H-pyran-4-yl)-1,3-dihydro-2H-imidazo[4,5-c][1,5]naphthyridin-2-one] | – | 0.00694 µM | –
14 | Cc1ccc(-c2ccc3ncc4c(c3n2)n(C2CCOCC2)c(=O)n4CCO)cn1 [Compound 218, 3-(2-hydroxyethyl)-8-(6-methylpyridin-3-yl)-1-(tetrahydro-2H-pyran-4-yl)-1,3-dihydro-2H-imidazo[4,5-c][1,5]naphthyridin-2-one] | 45.4 nM | 0.428 µM | –
15 | COc1ccc(-c2ccc3ncc4c(c3n2)n(C2CCOCC2)c(=O)n4CCO)cn1 [Compound 219, 3-(2-hydroxyethyl)-8-(6-methoxypyridin-3-yl)-1-(tetrahydro-2H-pyran-4-yl)-1,3-dihydro-2H-imidazo[4,5-c][1,5]naphthyridin-2-one] | 75.7 nM | – | Ki (mTOR): 47.2 nM
16 | CN(C)c1ccc(-c2ccc3ncc4c(c3n2)n(C2CCOCC2)c(=O)n4CCO)cn1 [Compound 222, 8-[6-(dimethylamino)pyridin-3-yl]-3-(2-hydroxyethyl)-1-(tetrahydro-2H-pyran-4-yl)-1,3-dihydro-2H-imidazo[4,5-c][1,5]naphthyridin-2-one] | 319 nM | – | Ki (mTOR): 50.1 nM
17 | C[C@H](CO)n1c(=O)n(C)c2cnc3ccc(-c4cnn(C)c4)nc3c21 [Compound 232, 1-[(1R)-2-hydroxy-1-methylethyl]-3-methyl-8-(1-methyl-1H-pyrazol-4-yl)-1,3-dihydro-2H-imidazo[4,5-c][1,5]naphthyridin-2-one] | 143 nM | – | Ki (mTOR): 521 nM
18 | C[C@H](CO)n1c(=O)n(C)c2cnc3ccc(-c4cnc5ccccc5c4)nc3c21 [Compound 234, 1-[(1R)-2-hydroxy-1-methylethyl]-3-methyl-8-quinolin-3-yl-1,3-dihydro-2H-imidazo[4,5-c][1,5]naphthyridin-2-one] | 57.3 nM | – | –
19 | Cn1c(=O)n([C@H]2CC[C@H](O)CC2)c2c3nc(-c4cccc5[nH]ccc45)ccc3ncc21 [Compound 236, 1-(trans-4-hydroxycyclohexyl)-8-(1H-indo1-4-yl)-3-methyl-1,3-dihydro-2H-imidazo[4,5-c][1,5]naphthyridin-2-one] | – | 0.00961 µM | –
20 | CNC(=O)Nc1ccc(-c2ccc3ncc4c(c3n2)n(C2CCN(C(=O)[C@H](C)O)CC2)c(=O)n4C)cc1 [Compound 244, 1-[4-(1-{1-[(2S)-2-hydroxypropanoyl]piperidin-4-yl}-3-methyl-2-oxo-2,3-dihydro-1H-imidazo[4,5-c][1,5]naphthyridin-8-yl)phenyl]-3-methylurea] | 1.94 nM | 0.0815 µM | –
21 | CNC(=O)Nc1ccc(-c2ccc3ncc4c(c3n2)n(C2CCN(C(=O)CO)CC2)c(=O)n4C)cc1 [Compound 245, 1-{4-[1-(1-glycoloylpiperidin-4-yl)-3-methyl-2-oxo-2,3-dihydro-1H-imidazo[4,5-c][1,5]naphthyridin-8-yl]phenyl}-3-methylurea] | 2.19 nM | – | Ki (mTOR): 2.03 nM
22 | CC(=O)N1CCC(n2c(=O)n(C)c3cnc4ccc(-c5cccc(-n6cccn6)c5)nc4c32)CC1 [Compound 247, 1-(1-acetylpiperidin-4-yl)-3-methyl-8-[3-(1H-pyrazol-1-yl)phenyl]-1,3-dihydro-2H-imidazo[4,5-c][1,5]naphthyridin-2-one] | 17.6 nM | – | –
23 | Cn1c(=O)n(C2CCN(C(=O)CO)CC2)c2c3nc(-c4ccnc5[nH]ncc45)ccc3ncc21 [Compound 252, 1-(1-glycoloylpiperidin-4-yl)-3-methyl-8-(1H-pyrazolo[3,4-b]pyridin-4-yl)-1,3-dihydro-2H-imidazo[4,5-c][1,5]naphthyridin-2-one] | 0.832 nM | – | Ki (mTOR): 1.77 nM
24 | Cn1c(=O)n([C@H]2CC[C@H](O)CC2)c2c3nc(-c4cnc5[nH]ncc5c4)ccc3ncc21 [Compound 268, 1-(trans-4-hydroxycyclohexyl)-3-methyl-8-(1H-pyrazolo[3,4-b]pyridin-5-yl)-1,3-dihydro-2H-imidazo[4,5-c][1,5]naphthyridin-2-one] | 0.366 nM | 0.0133 µM | –
25 | COc1ccc(-c2ccc3ncc4c(c3n2)n(CCN2CCOCC2)c(=O)n4C)cn1 [Compound 269, 8-(6-methoxypyridin-3-yl)-3-methyl-1-(2-morpholin-4-ylethyl)-1,3-dihydro-2H-imidazo[4,5-c][1,5]naphthyridin-2-one] | 12.2 nM | – | Ki (mTOR): 27.8 nM
26 | COc1ccc(-c2ccc3ncc4c(c3n2)n(C2CCN(C(=O)[C@H](C)O)CC2)c(=O)n4C)cc1 [Compound 272, 1-{1-[(2S)-2-hydroxypropanoyl]piperidin-4-yl}-8-(4-methoxyphenyl)-3-methyl-1,3-dihydro-2H-imidazo[4,5-c][1,5]naphthyridin-2-one] | 1.84 nM | 0.014 µM | –
27 | COc1ccccc1-c1ccc2ncc3c(c2n1)n(C1CCN(C(=O)CO)CC1)c(=O)n3C [Compound 279, 1-(1-glycoloylpiperidin-4-yl)-8-(2-methoxyphenyl)-3-methyl-1,3-dihydro 2H-imidazo[4,5-c][1,5]naphthyridin-2-one] | 118 nM | – | –
28 | COc1ccccc1-c1ccc2ncc3c(c2n1)n(C1CCN(C(C)=O)CC1)c(=O)n3C [Compound 280, 1-(1-acetylpiperidin-4-yl)-8-(2-methoxyphenyl)-3-methyl-1,3-dihydro-2H-imidazo[4,5-c][1,5]naphthyridin-2-one] | – | – | Ki (PI3-Kα; read-out: PI3Ka Ki): 292 nM

Source: patent publication US8791131B2, “Imidazo[1,5]naphthyridine compounds, their pharmaceutical use and compositions” (Pfizer Inc., priority 2008, dated 2014)
